In patent US6808877B2, “Ligands for FPR class receptors that induce a host immune response to a pathogen or inhibit HIV infection” (priority 2000, dated 2004):
“Also recorded” adds a separate entry of the source.

Key:
[1] = tested on: CCR5; test: CCR5 serine phosphorylation in monocytes (anti-phosphoserine IP, anti-CCR5 immunoblot); format: cell-based, human; details: human monocytes; for serine phosphorylation of CCR5: 37° C.
Description: Monocytes were isolated by counter-flow elutriation from the peripheral blood of normal donors (NIH Clinical Center, Transfusion Medicine Department, Bethesda, Md.) and enriched for mononuclear cells by using counter-flow elutriation. The purity of the cell preparations was examined by morphology after cytospin, and was >90%. The cells were stimulated with different concentrations of chemokines for indicated time periods at 37° C. and lysed for 20 min on ice with periodic mixing in lysis buffer (1% Triton X-100, 20 mM, Tris-HCl pH 8.0, 137 mM NaCl, 15% glycerol, 5 mM EDTA) containing phosphatase and protease inhibitors (1 mM phenylmethylsulfonyl fluoride, 5 μg/ml aprotinin, 5 μg/ml leupeptin, 1 mM sodium orthovanadate, 1 mM EGTA). Cell lysates were precleared with 30 µl of washed Protein-A sepherose beads (Pharmacia Biotech. Piscataway, N.J.), 1 μg of polyclonal anti-phospho-serine antibody (Zymed Laboratory Inc. South San Francisco, Calif.) was added to 200 μg cell lysates diluted with 2×immunoprecipitation (IP) buffer (1×buffer contains 1%Triton X-100, 10 mM Tris-HCl pH 7.4, 137 mM NaCl, 1 mM EDTA, 1 mM EGTA, 0.2 mM sodium orthovanadate, 0.2 mM PMSF, 0.5% NP-40). The reaction mixture was incubated at 4° C. overnight under constant rocking. The immune complex was captured by adding 50 μl of washed Protein-A sepharose beads (25 μl packed beads) and incubation of the reaction mixture at 4° C. for additional 2 hours. The beads were spun down (10 seconds at 14,000 rpm), the pellets were washed 3 times with ice-cold IP buffer, resuspended in 30 μl of 2×Laemmli sample buffer (126 mM Tris-HCl, 20% Glycerol, 4% SDS, 0.005% bromophenol blue with or without addition of 1% 2-mercaptoethanol, Novex, San Diego, Calif.) and boiled for 5 min to elute the immune complex. After electrophoresis on 4-12% SDS-PAGE precast gel (Novex), the proteins were transferred to Immobilon P membranes (Millipore, Bedford, Mass.). The membranes were blocked in freshly prepared PBS containing 3% dry milk 2 h, then were incubated with 1 μg/ml of polyclonal anti-CCR5 antibody (Millenium Biotechnology, Ramona, Calif.) overnight at 4° C. followed by washing 3 times with PBS containing 0.05% Tween 20. The membranes were incubated with a horse radish-peroxidase conjugated goat anti-rabbit IgG (1:5000) (Sigma, St. Louis, Mo.) in PBS containing 3% dry milk for 1 hour at room temperature with agitation. After washing 3 times with PBS-0.05% Tween 20, the membranes were incubated with Super Signal Chemiluminescent Substrate Stable Peroxide Solution (Pierce, Rockford, Ill.) for 1 min, and exposed to BIOMAX-MR film (Eastman Kodak Company, Rochester, N.Y.).
Monocytes stimulated with different concentrations of stimulants for indicated time periods at 37° C. were lysed for 20 min on ice with periodic mixing in lysis buffer [1% Triton X-100, 20 mM Tris-HCl (pH 8.0), 137 mM NaCl, 15% glycerol, 5 mM EDTA] containing phosphatase and protease inhibitors (1 mM phenylmethylsulfonyl fluoride, 5 μg/ml aprotinin, 5 μg/ml leupeptin, 1 mM sodium orthovanadate, 1 mM EGTA). Cell lysates were precleaned with 30 μl of washed Protein A Sepharose beads (15 μl packed beads) at 4° C. for 1 hour and 1 μg of polyclonal anti-phosphoserine antibody was added to 200 μg cell lysates diluted with 2×immunoprecipitation (IP) buffer [1×: 1% Triton X-100, 10 mM Tris-HCl (pH 7.4), 137 mM NaCl, 1 mM EDTA, 1 mM EGTA, 0.2 mM […], 0.2 mM PMSF, 0.5% NP-40]. The reaction mixture was incubated at 4° C. overnight under constant rocking. The immunecomplex was captured by adding 50 μl of washed Protein A sepharose beads (25 μl packed beads) and incubating the reaction mixture at 4° C. for an additional 2 hours. […]

[2] = tested on: monocytes; test: Ca2+ mobilization in monocytes (Fura-2); format: cell-based, human
Description: (§1) Calcium mobilization was measured by incubating 2×10^7/ml cells in loading medium (DMEM, 10% FBS) with 5 μM Fura-2 AM (Molecular Probes, Eugene, Oreg.) for 30 min at room temperature in the dark. The dye-loaded cells were washed 3 times with loading medium and resuspended in saline buffer [138 mM NaCl, 6 mM KCl, 1 mM CaCl2, 10 mM HEPES (pH 7.4), 5 mM Glucose, 0.1% BSA] at a concentration of 1×10^6/ml. The cells were then transferred into quartz cuvettes (2 ml) which were placed in a luminescence spectrometer (LS-50B, Perkin-Elmer, Beaconsfield, England). Stimulants at different concentrations were added in a volume of 20 μl to each cuvette at the indicated time points. The ratio of fluorescence at 340 and 380 nm wavelength was calculated using a FL WinLab program (Perkin-Elmer).
(§2) Calcium mobilization was assayed by incubating 2×10^7/ml of monocytes, neutrophils, FPRL1 or FPR transfectants in loading buffer containing 138 mM NaCl, 6 mM KCl, 1 mM CaCl2, 10 mM HEPES (pH 7.4), 5 mM glucose, 0.1% BSA with 5 μM Fura-2 (Sigma) at 37° C. for 30 min. The dye-loaded cells were washed and resuspended in fresh loading buffer. The cells were then transferred into quartz cuvettes (10^6 cells in 2 ml) which were placed in a luminescence spectrometer LS50 B (Perkin-Elmer Limited, Beaconsfield, England). Stimulants at different concentrations were added in a volume of 20 μl to the cuvettes at indicated time points. The ratio of fluorescence at 340 and 380 nm wavelength was calculated using the FL WinLab program (Perkin-Elmer).

[3] = tested on: neutrophils; test: Ca2+ mobilization in neutrophils (Fura-2); format: cell-based, human
Description: as §1, §2

[4] = target: T1, FPRL1 (Homo sapiens, UniProt P25090); test: Ca2+ mobilization in FPRL1/293 cells; format: cell-based
T1 construct: expressed in transfected cells; host or cells: HEK 293
T1 sequence (P25090 1-351): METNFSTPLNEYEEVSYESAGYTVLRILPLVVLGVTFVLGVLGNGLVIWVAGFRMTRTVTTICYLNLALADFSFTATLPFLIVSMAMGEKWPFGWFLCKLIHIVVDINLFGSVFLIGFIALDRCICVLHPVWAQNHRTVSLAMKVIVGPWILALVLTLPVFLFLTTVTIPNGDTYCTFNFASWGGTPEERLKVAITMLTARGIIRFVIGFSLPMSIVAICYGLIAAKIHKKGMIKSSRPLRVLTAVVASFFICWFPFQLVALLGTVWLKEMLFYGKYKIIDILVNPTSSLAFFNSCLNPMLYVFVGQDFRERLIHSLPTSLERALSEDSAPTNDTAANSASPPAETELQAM
Description: as §1, §2

[5] = concentrations in the micromolar range
[6] = high concentration of fMLP (1 μM), V3 1.5 μM

Compound	time to increase in CCR5 phosphorylation after stimulation [1] [min]	serine phosphorylation of CCR5 [1]	response to W peptide (Ca2+ flux) [2, 5]	signaling of V3 peptide on cross-desensitization [2, 6]	effect on W peptide-induced Ca2+ flux ([2]; low concentrations (nM range))	response to W peptide (Ca2+ flux) [3, 5]	signaling of V3 peptide on cross-desensitization [3, 6]	effect on W peptide-induced Ca2+ flux ([3]; low concentrations (nM range))	excess required to desensitize the effect of W peptide (Ca2+ flux) ([4]; FPRL1/293 cells)	minimal effective concentration to induce Ca2+ mobilization ([4]; FPRL1/293 cells, given as range in words)	time of maximal CCR5 phosphorylation [1] [min]	Ca2+ mobilization [2]	attenuation of the cell response to chemokines including SDF-1α on sequential stimulation ([2]; V3 peptide 1.5 μM)	Ca2+ mobilization [3]	Ca2+ mobilization ([4]; HEK293 cells transfected to express FPRL1)
CSCC[C@H](NC=O)C(=O)N[C@@H](CC(C)C)C(=O)N[C@@H](Cc1ccccc1)C(=O)O [fMLP, N-formyl-methionyl-leucyl-phenylalanine]	≤ 1	increased level of CCR5 phosphorylation; also recorded: induced CCR5 phosphorylation	significantly attenuated	attenuated	limited effect	significantly attenuated	attenuated	limited effect	10^5 fold excess	μM range					
TRPNYNKRKRIHIGPGRAFYTTKNIIGTIRQAH-NH2 [V3 peptide]		induced significant serine phosphorylation of CCR5									15	mobilized Ca^2+	did not, however, attenuate	mobilized Ca^2+	induced both Ca^2+ mobilization and chemotaxis
